This is an account of results in patent US11813333B2, “Use of high molecular weight polyethylene glycol compositions to restore the efficacy of pegylated therapeutic compositions” (THE UNIVERSITY OF NORTH CAROLINA AT CHAPEL HILL, priority 2017, dated 2023).

Series [1] relates to anti-PEG antibodies (APA). The settings on record: patients with chronic refractory gout; cited from earlier work.
For series [2], the system named is anti-PEG antibodies (APA). The settings on record: mouse, in vivo.
Description: Adult BALB/c mice (18-22 weeks, female, Charles River) were passively immunized with APA by the intravenous administration of mouse anti-PEG IgG1 (Silver Lake Research, CH2076, lot K0868) 24 hours prior to the intravenous administration of PLD (3 mg/kg, Doxil®, Janssen Products, LP). […] Other groups received PBS 0.5 hours prior to the administration of PLD as a control. At time points of 0.083, 3, 6, 24, 48, and 96 hours following PLD administration, mice were anesthetized using ketamine (100 mg/kg, i.p.) and medetomidine hydrochloride (1 mg/kg, i.p.), then sacrificed via cardiac puncture (into sodium heparin vacutainers) and cervical dislocation. The blood, liver, spleen, and lungs were collected for doxorubicin quantification.
Briefly, blood samples were collected in sodium heparin tubes at 0.083, 3, 6, 24, 48 and 96 hours after the administration of PLD. Blood was centrifuged at 1,500 g for 5 minutes to obtain plasma. Encapsulated and released doxorubicin in plasma were separated using solid phase separation. Tissues of interest were flash frozen in liquid nitrogen and stored at −80° C. until processing. Upon processing, tissues were thawed, weighed, and diluted in a 1:3 ratio with phosphate buffered saline prior to homogenizing with a Precellys 24 bead mill homogenizer (Omni International Inc, Kennesaw, GA). Samples were further processed by addition of 800 μL extraction solution (acetonitrile with 100 ng/mL daunorubicin internal standard) to 200 μL of plasma or tissue homogenate. The samples were vortexed for 10 minutes and centrifuged at 10,000 g for 10 minutes at 4° C. […] The samples were then vortexed, transferred to autosampler vials, and analyzed by high-performance liquid chromatography with fluorescence detection (HPLC-FL) set to excitation wavelength 490 nm/emission wavelength 590 nm. […] Samples that returned a concentration above the quantitative limit were diluted to fall within the quantitative range and reinjected.

For pegloticase, the “fraction of patients that developed APA leading to rapid clearance of the enzyme from the blood” value in series [1] is given as “roughly one-third”.

For polyethylene glycol [PEG 10 kDa], the “time by which the vast majority of the PLD is found in the liver (delayed hepatic accumulation)” value (shortened to “time by which the vast majority”) in series [2] came out at 3 h.

As to polyethylene glycol [PEG 20 kDa], the “time by which the vast majority” value in series [2] is 24 h.

With polyethylene glycol [PEG 40 kDa], in series [2], the “time by which the vast majority” value was found to be 96 h.
